Reference: ChEMBL document CHEMBL1155980, “Prenyloxyphenylpropanoids as a novel class of anticonvulsive agents” (2009)
Active and inactive are the calls of the source. No cut-off for these calls is given here.

How the values were obtained:
[1] = tested on: Mus musculus; assay: Anticonvulsant activity in mouse at 300 mg/kg, ip after 60 mins by MES test; assay type: functional, organism-based; set-up: dose 300 mg/kg
[2] = tested on: Mus musculus; assay: Anticonvulsant activity in mouse at 300 mg/kg, ip after 120 mins by MES test; assay type: functional, organism-based; set-up: dose 300 mg/kg
[3] = tested on: Mus musculus; assay: Anticonvulsant activity in mouse at 300 mg/kg, ip after 15 mins by MES test; assay type: functional, organism-based; set-up: dose 300 mg/kg
[4] = tested on: Mus musculus; assay: Anticonvulsant activity in mouse at 300 mg/kg, ip after 30 mins by MES test; assay type: functional, organism-based; set-up: dose 300 mg/kg
[5] = tested on: Mus musculus; assay: Anticonvulsant activity in mouse at 300 mg/kg, ip after 5 mins by MES test; assay type: functional, organism-based; set-up: dose 300 mg/kg
[6] = species: Mus musculus; assay: Anticonvulsant activity in mouse after 15 mins by MES test; assay type: functional; conditions: 0.25 h
[7] = species: Mus musculus; assay: Anticonvulsant activity in mouse after 5 mins by MES test; assay type: functional
[8] = tested on: Thoracic aorta; assay: Muscle relaxant activity in rat thoracic aorta assessed as inhibition of KCl-induced contraction at 100 uM; assay type: functional
[9] = species: Mus musculus; assay: Anticonvulsant activity in mouse after 60 mins by MES test; assay type: functional; conditions: 1 h
[10] = species: Mus musculus; assay: Anticonvulsant activity in mouse after 30 mins by MES test; assay type: functional; conditions: 0.5 h

Row | SMILES | Activity [1] | Activity [2] | Activity [3] | Activity [4] | Activity [5] | ED50 [6] [mg/kg] | ED50 [7] [mg/kg] | inhibition at 100 µM [8] [%] | ED50 [9] [mg/kg] | ED50 [10] [mg/kg]
1 | COc1c(OC/C=C(\C)CCC=C(C)C)ccc2ccc(=O)oc12 | inactive | inactive | inactive | inactive | – | – | – | – | – | –
2 | CC(C)=CCOc1ccc(CCC(=O)O)cc1 | inactive | inactive | inactive | inactive | inactive | – | – | – | – | –
3 | COc1c(OCC=C(C)C)ccc2ccc(=O)oc12 | inactive | inactive | inactive | inactive | inactive | – | – | – | – | –
4 | CC(C)=CCOc1ccc2ccc(=O)oc2c1 [7-PRENYLOXYCOUMARIN] | – | inactive | Active | Active | Active | 238 | > 350 | 80 | > 350 | 221
5 | COc1cc(/C=C/C(=O)O)ccc1OC/C=C(\C)CCC=C(C)C | – | inactive | Active | Active | – | 224 | 225 | – | > 350 | 224
6 | CC(=O)c1ccc(OCC=C(C)C)cc1O | inactive | inactive | inactive | inactive | inactive | – | – | – | – | –
7 | CC(C)=CCC/C(C)=C/COc1ccc(C(=O)/C=C/c2ccc(O)cc2)c(O)c1 | inactive | inactive | inactive | inactive | inactive | – | – | – | – | –
8 | CC(C)=CCOc1ccc2ccc(=O)oc2c1O | inactive | inactive | – | inactive | – | – | – | – | – | –
9 | COc1cc(C(=O)O)ccc1OCC=C(C)C | inactive | inactive | inactive | inactive | inactive | – | – | – | – | –
10 | CC(C)=CCOc1ccc(C(=O)/C=C/c2ccc(O)cc2)c(O)c1 | inactive | inactive | inactive | inactive | inactive | – | – | – | – | –
11 | COc1cc(C(=O)O)ccc1OC/C=C(\C)CCC=C(C)C | inactive | inactive | inactive | inactive | inactive | – | – | – | – | –
12 | COc1cc(/C=C/C(=O)O)ccc1OCC=C(C)C | inactive | inactive | inactive | inactive | inactive | – | – | – | – | –
13 | CC(C)=CCC/C(C)=C/COc1ccc(/C=C/C(=O)O)cc1 | inactive | inactive | inactive | inactive | inactive | – | – | – | – | –
14 | CC(C)=CCOc1ccc(C(=O)/C=C/c2ccccc2)c(O)c1 | inactive | inactive | inactive | inactive | inactive | – | – | – | – | –
15 | CC(C)=CCOc1ccc(/C=C/C(=O)O)cc1 | – | inactive | Active | – | Active | 262 | 228 | – | > 350 | 312
16 | CC(=O)c1ccc(OC/C=C(\C)CCC=C(C)C)cc1O | inactive | inactive | inactive | inactive | inactive | – | – | – | – | –
17 | CC(C)=CCC/C(C)=C/COc1ccc2ccc(=O)oc2c1 | inactive | – | inactive | inactive | inactive | – | – | – | – | –
